Earlier results on two compounds are cited in patent US20090221462A1, “Fragrance compositions” (priority 2005, published 2009).

As usually defined, the pKa is the negative logarithm of the acid dissociation constant.

The conditions of the data set: at 25° C.

Consider `O=C(O)C=Cc1ccccc1` [cinnamic acid], for which the “pKa (cis)” value (cis isomer) was 3.89.

Turning to `O=C(O)Cc1ccccc1` [phenylacetic acid], the pKa is reported as 4.28.
